Laboratory results as given in patent US10611742B2, “4-oxo-4,5-dihydrothiazole derivative, preparation method and use thereof” (Institute of Pharmacology and Toxicology Academy of …, priority 2015, dated 2020).

Tests used:
Type in all cases: cell-based
[1] = test system: clathrin-mediated endocytosis of transferrin; experiment: inhibition of clathrin-mediated endocytosis of transferrin in HeLa cells (fluorescence microscope); conditions: for inhibitory effect on endocytosis of transferrin (in words): 1.25 to 40 μmol/L; for inhibition at 20 µM: Homo sapiens, 20 μM compound, read-out: Inhibition rate
Description: 1. Experiment principle: transferrin was a key protein for clathrin-mediated endocytosis. Therefore, by determining the effect of a compound on transferrin in HeLa cell, the inhibitory effect of the compound on clathrin-mediated endocytosis could be evaluated. 2. Sample treatment: a test compound was dissolved in DMSO to prepare a stock solution, which was stored at −20° C. The stock solution was diluted with HEPES buffer (25 mm HEPES, 20 mm Glucose, 1% BSA, sterile water) to prepare a solution with an initial concentration of […] before use, and was 2-fold diluted with the buffer to obtain 6 diluted concentrations from 1.25 to 40 μmol/L. 4. Test method: HeLa cells (provided by the Cell Bank of Chinese Academy of Sciences) were seeded on a 24-well culture plate coated with 0.1 mg/ml polylysine, a serum-free medium DMEM (Gibco Company) was added at 500 μl/well, and the cells were cultured for one night. To each well, 0.5 μl a test compound at a different diluted concentration or 0.1 v/v % DMSO was added, then the pretreatment was performed for 15 min, and then 20 μg/ml alexa^568 transferrin (2 μl) (TF, SIGMA-ALDRICH Company) was added, and the incubation was carried out at 37° C. for 15 min. The resultant mixture was then washed with Live Cell Imaging Solution (LCIS, Invitrogen Company) and an acid at a low pH ([…] NaCl solution containing 0.5% acetic acid) for 30 s, respectively, followed by fixing with cold methanol, and was observed under fluorescence microscope.

[2] = test system: enterovirus EV71 (SZ-98 strain); experiment: anti-EV71 activity, therapeutic effect on Vero cell (CPE inhibition, Celltiter Glo)
Description: (§1) Test principle: Vero cell, MRC-5 cell, and RD cell were used as host of virus, respectively, and samples were tested for their inhibition of cytopathic effect (CPE) caused by virus.
(§2) 1. Virus strain: enterovirus EV71 (SZ-98 strain, provided by Chinese Center for Disease Control and Prevention), Vero cell (provided by the Cell Bank of Chinese Academy of Sciences), MRC-5 cell (provided by the Cell Bank of Chinese Academy of Sciences), and RD cell (provided by the Cell Bank of Chinese Academy of Sciences), were subjected to passage culture, respectively, and stored at −80° C.
(§3) 2. Sample treatment: a test sample (Compounds 1-14 and positive control agent) was dissolved in dimethyl sulfoxide (DMSO) to prepare a stock solution, which was stored at −20° C. The stock solution was diluted with DMEM medium (Gibco Company) containing 2% fetal bovine serum (Gibco Company) to prepare a 100 μM solution before use, and was 3-fold diluted with the medium to obtain 8 diluted concentrates.
(§4) 3. Positive control agent: Con1 (pitstop2) (purchased from AmyJet Scientific Inc., Abcam), a broad-spectrum antiviral inhibitor.
(§5) 4. Test method: • 4.1 Therapeutic effect: the cells were seeded on a 96-well culture plate, and cultured in a 5% CO2, 37° C. incubator for 24 h. About 100 TCID50 enterovirus EV71 was added to each well. After adsorption at 37° C. for 1 h, the virus solution was discarded, and a drug was added at different diluted concentrates, respectively. Meanwhile, virus control and cell control were set, and cultured at 37° C. […] The virus-inhibition rate of a sample at each concentration was calculated based on the chemiluminescent value, the sample concentration was used as abscissa, and the inhibition rate was used as ordinate, and S-Curve fitting was performed by using Origin software. Half maximal inhibitory concentration (IC50) of each sample for enterovirus EV71 was calculated based on the fitting results. Median toxic concentration (TC50) was determined by the same method. […] To each well, a drug was added at a different diluted concentration, then the cells were cultured at 37° C. for 2 h, and then the drug was discarded. About 100 TCID50 enterovirus EV71 was added to each well, adsorbed at 37° C. for 1.5 h, then the virus solution was discarded, and a maintenance medium free of drug was added. Meanwhile, virus control and cell control were set, and cultured at 37° C. […] The virus-inhibition rate of a sample at each concentration was calculated, and half maximal inhibitory concentration (IC50), median toxic concentration (TC50), and selection index (SI) of each sample for enterovirus EV71 were calculated. The methods for determining and calculating them were as described in Item 4.1

[3] = test system: enterovirus EV71 (SZ-98 strain); experiment: anti-EV71 activity, preventive effect on Vero cell (CPE inhibition)
Description: as §1, §2, §3, §4, §5

[4] = median toxic concentration on Vero cell; conditions: African green monkey, Vero cells; for CC50: Table 1-1 (therapeutic effect), read-out: TC50 (the source's name); for CC50 at 2 h: Table 2-1 (preventive effect), read-out: TC50
Description: as §2, §3, §5

[5] = test system: Vero cell; experiment: median toxic concentration on Vero cell
Description: as §2, §3, §5

[6] = test system: enterovirus EV71 (SZ-98 strain); experiment: anti-EV71 activity, therapeutic effect on RD cell (CPE inhibition, Celltiter Glo)
Description: as §1, §2, §3, §4, §5

[7] = test system: enterovirus EV71 (SZ-98 strain); experiment: anti-EV71 activity, therapeutic effect on MRC-5 cell (CPE inhibition, Celltiter Glo); conditions: MRC5
Description: as §1, §2, §3, §4, §5

[8] = median toxic concentration on MRC-5 cell; conditions: human, MRC-5 cells, Table 1-2 (therapeutic effect), read-out: TC50 (the source's name)
Description: as §2, §3, §5

[9] = test system: enterovirus EV71 (SZ-98 strain); experiment: anti-EV71 activity, preventive effect on RD cell (CPE inhibition)
Description: as §1, §2, §3, §4, §5

[10] = median toxic concentration on RD cell; conditions: human, RD cells; for CC50 at 2 h: Table 2-2 (preventive effect), read-out: TC50; for CC50: read-out: TC50 (the source's name)
Description: as §2, §3, §5

[11] = EV71 (SZ-98 strain), therapeutic effect on Vero cell, read-out: IC50

| SMILES | endocytosis of transferrin at 20 μM (in words) ([1]; 20 μM) | inhibitory effect on endocytosis of transferrin (in words) [1] | inhibition at 20 µM [1] [%] | IC50 [2, 11] [µM] | IC50 ([2]; Enterovirus, EV71, Vero cell, read-out: activity (IC50)) [µM] | IC50 [3] [µM] | CC50 [4] [µM] | CC50 at 2 h [4] [µM] | toxicity compared with the positive control agent (in words) [5] | anti-EV71 activity (in words) [6] | IC50 ([6]; EV71 (SZ-98 strain)) [µM] | IC50 ([6]; Enterovirus, EV71) [µM] | IC50 [7] [µM] | CC50 [8] [µM] | IC50 [9] [µM] | CC50 at 2 h [10] [µM] | CC50 [10] [µM] | TC50 ([5]; Table 1-1 (therapeutic effect)) [µmol/L] | CC50 ([10]; Table 1-3 (therapeutic effect)) [µM] |
| --- | --- | --- | --- | --- | --- | --- | --- | --- | --- | --- | --- | --- | --- | --- | --- | --- | --- | --- | --- |
| CCN(CC)c1ccc(/C=C2\SC(NS(=O)(=O)c3cccc4ccccc34)=NC2=O)c(O)c1 [Compound 3, Naphthalene-1-sulfonic acid [5-(2-hydroxy-4-diethylamino-benzylidene)-4-oxo-4,5-dihydro-thiazol-2-yl] amide] | completely inhibited | dose-dependent | 100 | 5.14 | 5.14 | > 7.41 | 12.8 | 12.8 | a lower toxicity than the positive control agent | better anti-EV71 activity | 7.41 | 7.41 | > 7.41 | 12.8 | > 7.41 | 12.8 | 12.8 | – | – |
| O=C1N=C(NS(=O)(=O)c2cccc3ccccc23)S/C1=C\c1ccc(C(=O)O)cc1 [Compound 5, Naphthalene-1-sulfonic acid [5-(4-carboxy-benzylidene)-4-oxo-4,5-dihydro-thiazol-2-yl] amide] | – | – | – | > 200 | – | ≥ 22.2 | – | 200 | – | better anti-EV71 activity | 22.2 | – | > 200 | > 200 | 200 | > 200 | – | 200 | > 200 |
| O=C1N=C(NS(=O)(=O)c2cccc3ccccc23)S/C1=C\c1ccc(Br)cc1 [Con 1, Naphthalene-1-sulfonic acid [5-(4-bromo-benzylidene)-4-oxo-4,5-dihydro-thiazol-2-yl] amide, reference compound] | – | dose-dependent | 50 | > 2.47 | – | > 2.47 | 4.28 | 4.28 | – | – | 5.41 | 5.14 | > 2.47 | 10.7 | 5.14 | 12.8 | 12.8 | – | – |
